Source: patent publication US20250027958A1, “DIAGNOSTIC AND THERAPEUTIC METHODS USING HEME AS A BIOMARKER FOR CELLULAR AND TISSUE DAMAGE” (Beth Israel Deaconess Medical Center, Inc., priority 2021, published 2025)
Entries after “also recorded” stand apart in the source; their conditions may differ.

Tested on: male C57BL/6 mice
Settings: DOX 20 mg/kg i.p., blood collected 1 hr later
Description: In brief, for the assessment of acute cytotoxicity, male C57BL/6 mice (10-12 weeks old) are administered HBI-002 (10 ml/kg, per os) or a control vehicle (10ml/kg, per os) at 0 hr and 1 hr, followed by administration of doxorubicin at 1.25 hr (20 mg/kg, intraperitoneal injection) and blood and tissue collection at 2.25 hr.
Male C57BL/6 mice (10-12 weeks old) were administered HBI-002 (10 ml/kg, per os) or a control vehicle (10 ml/kg, per os) at 0 hr and 1 hr, followed by administration of DOX at 1.25 hr (20 mg/kg, intraperitoneal injection) and blood and tissue collection at 2.25 hr (FIG. 1).

COc1cccc2c1C(=O)c1c(O)c3c(c(O)c1C2=O)C[C@@](O)(C(=O)CO)C[C@@H]3O[C@H]1C[C@H](N)[C@H](O)[C@H](C)O1 [DOX, Doxorubicin]
serum heme upon administration of DOX: significant increases in heme levels; also recorded: significant increase in serum heme
